Experimental data published in patent US7704686B2, “Methods of identifying immunoregulatory agents, immunoregulatory agents, and uses thereof” (Toudai TLO, Ltd., priority 2003, dated 2010).

Key:
Assay type in all cases: cell-based, human
caveolin-1 = experiment: Western blot of caveolin-1 in siRNA-transfected monocytes; details: 48 hrs after transfection, HVJ-E vector
Experimental: Lysates were generated with RIPA lysis buffer (1% NP-40, 0.5% sodium deoxycholate, 0.1% SDS, 5 mM EDTA, 10 mM Tris-HCl (pH 7.4), 0.15 M NaCl, 1 mM PMSF, 0.5 mM NaF, 10 μg/ml aprotinin and 0.02 mM Na3VO4) from 1.0×10^7 of THP-1 cells incubated with recombinant soluble CD26 (rsCD26) or 1.0×10^7 of TT-loaded monocytes stimulated with rsCD26-coated beads. Then, lysates were clarified by 15,000×g for 30 min. Immunoprecipitates (IPs) were performed by incubating lysates with 2 μg of control immunoglobulins (Ig) and protein G-sepharose beads (Amersham Pharmacia) at 4° C. for 1 h. After centrifugation, supernatants were incubated with 2 μg of specific Ig at 4° C. for 2 h, followed by addition of protein G-sepharose beads for an overnight incubation. After washing four times with RIPA lysis buffer, beads were submitted to SDS-PAGE and Western blot analysis.
To design target-specific siRNA duplexes, the present inventors selected sequences of the type AA(N19) (N, any nucleotide) from the open reading frame of human caveolin-1 (accession number=NM 001753) (Elbashir, et al., 2001). Moreover, the inventors added the sequences to the 2-nucleotide 3′ overhangs of 2′-deoxythymidine (dTdT), in order to generate a symmetric duplex with respect to the sequence composition of the sense and antisense 3′ overhangs. These symmetric 3′ overhangs were reported to help to ensure that the siRNA were formed with approximately equal ratios of sense and antisense target RNA-cleaving siRNA (Elbashir, et al., 2001). Therefore, the present inventors selected two target sequences from 81 to 101 (ss1) and […] (ss2) downstream of the start codon of caveolin-1 mRNA (sense1 siRNA (ss1-siRNA): 5′[…] CAGACdTdT (SEQ ID NO: 6), and sense2 siRNA (ss2-siRNA): 5′ AAGGAGA […] dTdT (SEQ ID NO: 7)). Moreover, mis-siRNA at 4 nucleotides was prepared to examine non-specific effects of siRNA duplexes (mis-siRNA: 5′ […] GCAGACdTdT (SEQ ID NO: 8)). To visualize the efficiency of transfection, the inventors also prepared Texas red-conjugated missense siRNA (mis-siRNA-TR). […]

CD86 = experiment: Flow cytometry of surface CD86 on TT-loaded monocytes stimulated with CD26-coated beads; details: siRNA-transfected monocytes, stimulated with CD26 wt-coated beads
Experimental: Freshly purified monocytes were cultured in Macrophage-SFM media for 24 h to diminish the effect of serum, and were preincubated with TT at a concentration of 0.5 μg/ml for an additional 24 h. After being washed with PBS, 1.0×10^6 of TT-loaded monocytes were stimulated for indicated periods with […] particles of polystyrene latex beads (Molecular Probes) coated with rsCD26 wt or rsCD26 del 201-211 (1.0 μg/ml). Stimulated monocytes were subjected to confocal laser microscopy, immunoprecipitation assay, Western blotting analysis, or flow cytometry (FCM).
In experiments assessing the expression of CD86 on purified monocytes after preincubation with or without TT (0.5 μg/ml) for 24 hours, following incubation with rsCD26-coated beads for 24 h, FITC-conjugated CD86 mAb (10 μg/ml) were used with PE-conjugated anti-CD14 (10 μg/ml) and Cy Chrome-conjugated CD45 (10 μg/ml) to gate exclusively on the monocyte population. In experiments assessing the effect of siRNA against caveolin-1 in monocytes, purified monocytes were transfected with siRNA as described below, following incubation with rsCD26-coated beads for 24 h, and stained as described above.
(§1) Flow-cytometric analysis of 10,000 viable cells was conducted on Becton-Dickinson FACScalibur. Each experiment was repeated at least three times, and the results were provided in the form of a histogram of a representative experiment, or increased mean percent±standard error (SE) of mean-fluorescent intensity (MFI), compared to control or untreated cells.
To design target-specific siRNA duplexes, the present inventors selected sequences of the type AA(N19) (N, any nucleotide) from the open reading frame of human caveolin-1 (accession number=NM 001753) (Elbashir, et al., 2001). Moreover, the inventors added the sequences to the 2-nucleotide 3′ overhangs of 2′-deoxythymidine (dTdT), in order to generate a symmetric duplex with respect to the sequence composition of the sense and antisense 3′ overhangs. […]

[1] = test system: caveolin-1 on cell surface of monocytes; experiment: Flow cytometric detection of cell surface caveolin-1 on monocytes; details: Filipin 1.0 μg/ml preincubation 30 min, then with or without TT
Experimental: For assessment of cell surface caveolin-1 exposure, after purified monocytes were treated with TT (0.5 μg/ml) for 0, 6, 12, 24, and 48 h, cells were washed with ice-cold PBS three times, and stained with anti-caveolin-1 antibody (5 μg/ml) for 60 min at 4° C., followed by staining with FITC conjugated anti-rabbit Ig antibody (1:200) for 60 min at 4° C. To disturb caveolae, purified monocytes were treated with Filipin (1.0 μg/ml, Sigma-Aldrich) for 30 min at 37° C. Cells were then subjected to TT loading and to staining caveolin-1 as described above.
as §1

[2] = test system: conjugation of activated T cells and TT-loaded monocytes; experiment: T cell-APC conjugation assay; details: monocytes preincubated with Filipin 30 min, then with or without TT
Experimental: For T cell-APC conjugation assay as described elsewhere (Lee, et al., 2002), 1.0×10^5 of activated T cells were mixed with 1.0×10^5 of purified monocytes that had been pulsed with or without TT (0.5 μg/ml for indicated time periods), with further centrifugation. Thirty minutes later, cell mixtures were attached to microslide glass (Matsunami Glass Inc., Tokyo, Japan) coated with poly-L-lysine, and fixed with 4% paraformaldehyde in PBS for 15 min at room temperature. Cells were blocked with mouse and rabbit Ig isotypes (1 μg/ml) for 30 min at 4° C., followed by incubation with anti-CD26 mAb and anti-caveolin-1 rabbit pAb (each of 10 μg/ml) for 60 min at 4° C., then washed with ice-cold PBS twice and incubated with FITC conjugated anti-mouse Ig and Texas red conjugated anti-rabbit Ig antibodies (1:200) for 60 min at 4° C. Cells were mounted in coverslips with Antifade Prolong kit. Conjugates were first identified by direct observation under differential interference contrast and then confirmed by detecting the green fluorescence of anti-CD26 mAb in T cells and the red fluorescence of anti-caveolin-1 pAb in monocytes. The proportion of T cell-APC conjugation was calculated by random choice of 500 different cells in a coverslips from five independent experiments. […]

5′ UACAAGAAGGGCAUG GCAGACdTdT [mismatched siRNA]
caveolin-1 expression in monocytes (knock down) (caveolin-1): not significantly knocked down | effect on CD86 upregulation in TT-loaded monocytes (CD86): did not exhibit this inhibitory effect

CCCCC[C@@H](O)[C@H]1C(=O)O[C@H](C)[C@@H](O)/C=C/C=C/C=C/C=C/C=C(\C)[C@@H](O)C[C@H](O)C[C@H](O)C[C@H](O)C[C@H](O)C[C@H](O)C[C@@H]1O [Filipin]
caveolin-1 on cell surface of monocytes [1]: not detected | T cell-monocyte cell conjugation [2]: not detected

5′ AAGGAGA UCGACCUGGUCAAC dTdT [ss2]
caveolin-1 expression in monocytes (knock down) (caveolin-1): effectively knocked down | effect on CD86 upregulation in TT-loaded monocytes (CD86): inhibited

5′AACAACAAGGCCAUGG CAGACdTdT [ss1]
caveolin-1 expression in monocytes (knock down) (caveolin-1): effectively knocked down | effect on CD86 upregulation in TT-loaded monocytes (CD86): inhibited
